Measurements: US11976072B2, “Diacylglycerol kinase modulating compounds” (priority 2021, dated 2024)
pEC50, pIC50: −log10 of the molar value. Like-named read-outs stand apart in the source and are kept apart here.

Key:
[1] = target: human DGKα (Homo sapiens, UniProt P23743); assay: DGKα Biochemical Activity Assay (ADP-Glo);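 also: luminescent detection of ADP produced as DGKα phosphorylates DAG to phosphatidic acid, IC50 from four-parameter nonlinear curve fit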
[2] = test system: Jurkat NFκB-luciferase cells; assay: Jurkat NFκB-Luciferase Assay; assay type: cell-based; details: Homo sapiens; Jurkat NFκB-luciferase cells activated with anti-CD3 antibody (OKT3), 2.5 hrs at 37° C.; geometric mean; read-out: DGK NFKb Luciferase EC50
Summary of the method: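 Luminescence from One-Glo Ex, read 7 min post-addition, reports NFκB activation in Jurkat luciferase reporter cells. Cells, diluted to 1 million cells/ml in 10% FBS RPMI, were dispensed onto plates holding compound and washed, pre-bound antibody.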

[3] = recombinant DGKα 1 nM, 100 μM ATP, 18:1 DAG/POPS/octylglucoside micelles, 1 hour at 25° C., geometric mean, read-out: HTBS DGKa 1X ATP KM IC50

Chain of human DGKα (P23743 whole entry): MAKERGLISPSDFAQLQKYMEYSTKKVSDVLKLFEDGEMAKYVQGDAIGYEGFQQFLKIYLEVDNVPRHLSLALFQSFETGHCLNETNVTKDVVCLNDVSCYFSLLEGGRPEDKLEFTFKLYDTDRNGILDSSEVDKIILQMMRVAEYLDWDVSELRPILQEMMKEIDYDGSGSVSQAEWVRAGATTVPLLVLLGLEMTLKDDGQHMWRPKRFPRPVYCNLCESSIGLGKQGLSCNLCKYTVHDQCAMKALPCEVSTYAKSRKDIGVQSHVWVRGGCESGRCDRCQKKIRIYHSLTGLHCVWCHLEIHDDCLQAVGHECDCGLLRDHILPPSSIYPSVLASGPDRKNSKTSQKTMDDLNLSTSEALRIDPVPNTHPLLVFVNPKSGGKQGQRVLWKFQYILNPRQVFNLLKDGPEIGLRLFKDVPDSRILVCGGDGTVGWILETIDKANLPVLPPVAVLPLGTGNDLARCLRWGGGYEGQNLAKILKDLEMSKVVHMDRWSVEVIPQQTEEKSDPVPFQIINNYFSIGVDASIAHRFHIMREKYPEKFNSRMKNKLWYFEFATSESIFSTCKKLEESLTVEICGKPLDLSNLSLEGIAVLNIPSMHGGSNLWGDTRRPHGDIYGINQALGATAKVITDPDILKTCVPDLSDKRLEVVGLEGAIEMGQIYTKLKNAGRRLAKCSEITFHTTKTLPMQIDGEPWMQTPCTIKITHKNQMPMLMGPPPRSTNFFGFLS

| pIC50 [1, 3] | pEC50 [2] | Compound | pIC50 [1] |
| --- | --- | --- | --- |
| 6.92 | 9.19 | CCCCCc1cc(C2(C#Cc3cccc4c3CCCN4c3nc4nnc(C)n4c4cccc(F)c34)CC2)no1 [Example 221, 3-(1-((1-(6-fluoro-1-methyl-[1,2,4]triazolo[4,3-a]quinazolin-5-yl)-1,2,3,4-tetrahydroquinolin-5-yl)ethynyl)cyclopropyl)-5-pentylisoxazole] |  |
| 8.20 | 9.14 | COc1ccc(C#Cc2cccc3c2COCCN3c2nc3nnc(C)n3c3cccc(F)c23)cn1 [Example 222, 1-(6-fluoro-1-methyl-[1,2,4]triazolo[4,3-a]quinazolin-5-yl)-6-((6-methoxypyridin-3-yl)ethynyl)-1,2,3,5-tetrahydrobenzo[e][1,4]oxazepine] |  |
| 7.39 | 8.04 | Cc1nnc2nc(N3CCCc4c(C#Cc5ccnn5C)cccc43)c3cc(F)ccc3n12 [Example 223, 7-fluoro-1-methyl-5-[5-[2-(2-methylpyrazol-3-yl)ethynyl]-3,4-dihydro-2H-quinolin-1-yl]-[1,2,4]triazolo[4,3-a]quinazoline] |  |
| 7.82 | 8.08 | Cc1nnc2nc(N3CCCc4c(C#Cc5ccn[nH]5)cccc43)c3cc(F)ccc3n12 [Example 224, 7-fluoro-1-methyl-5-[5-[2-(1H-pyrazol-5-yl)ethynyl]-3,4-dihydro-2H-quinolin-1-yl]-[1,2,4]triazolo[4,3-a]quinazoline] |  |
| 8.13 | 8.05 | Cc1nnc2nc(N3CCCc4c(C#Cc5cn[nH]c5)cccc43)c3cc(F)ccc3n12 [Example 225, 7-fluoro-1-methyl-5-[5-[2-(1H-pyrazol-4-yl)ethynyl]-3,4-dihydro-2H-quinolin-1-yl]-[1,2,4]triazolo[4,3-a]quinazoline] |  |
| 8.47 | 8.41 | Cc1nnc2nc(N3CCCc4c(C#Cc5cnn(C)c5)cccc43)c3c(F)c(F)ccc3n12 [Example 226, 6,7-difluoro-1-methyl-5-[5-[2-(1-methylpyrazol-4-yl)ethynyl]-3,4-dihydro-2H-quinolin-1-yl]-[1,2,4]triazolo[4,3-a]quinazoline] |  |
| 7.53 | 8.01 | Cc1nnc2nc(N(CC(F)F)c3cc(F)cc(C#Cc4cnn(C)c4)c3)c3c(F)c(F)ccc3n12 [Example 227, N-(2,2-difluoroethyl)-6,7-difluoro-N-[3-fluoro-5-[2-(1-methylpyrazol-4-yl)ethynyl]phenyl]-1-methyl-[1,2,4]triazolo[4,3-a]quinazolin-5-amine] |  |
| 7.75 | 9.50 | COc1ccc(C#Cc2cccc3c2CCCN3c2nc3nnc(C)n3c3ccc(F)cc23)cn1 [Example 228, 7-fluoro-5-[5-[2-(6-methoxy-3-pyridyl)ethynyl]-3,4-dihydro-2H-quinolin-1-yl]-1-methyl-[1,2,4]triazolo[4,3-a]quinazoline] |  |
| 7.78 | 8.98 | Cc1nnc2nc(N3CCCc4c(C#Cc5ccnc(C#N)c5)cccc43)c3cc(F)ccc3n12 [Example 229, 4-[2-[1-(7-fluoro-1-methyl-[1,2,4]triazolo[4,3-a]quinazolin-5-yl)-3,4-dihydro-2H-quinolin-5-yl]ethynyl]pyridine-2-carbonitrile] |  |
| 8.12 | 8.39 | Cc1nc(C#Cc2cccc3c2CCCN3c2nc3nnc(C)n3c3ccc(F)cc23)cs1 [Example 231, 4-[2-[1-(7-fluoro-1-methyl-[1,2,4]triazolo[4,3-a]quinazolin-5-yl)-3,4-dihydro-2H-quinolin-5-yl]ethynyl]-2-methyl-thiazole] |  |
| 7.91 | 8.03 | Cc1nnc2nc(N3CCCc4c(C#Cc5cncn5C)cccc43)c3cc(F)ccc3n12 [Example 232, 7-fluoro-1-methyl-5-[5-[2-(3-methylimidazol-4-yl)ethynyl]-3,4-dihydro-2H-quinolin-1-yl]-[1,2,4]triazolo[4,3-a]quinazoline] |  |
| 8.17 | 8.67 | Cc1nnc2nc(N3CCCc4c(C#Cc5cnn(C)c5)cccc43)c3c(F)cccc3n12 [Example 233, 6-fluoro-1-methyl-5-[5-[2-(1-methylpyrazol-4-yl)ethynyl]-3,4-dihydro-2H-quinolin-1-yl]-[1,2,4]triazolo[4,3-a]quinazoline] |  |
| 8.41 | 7.63 | Cc1nnc2nc(N3CCCc4c(C#CC5(CO)CC5)cccc43)c3cc(F)ccc3n12 [Example 234, [1-[2-[1-(7-fluoro-1-methyl-[1,2,4]triazolo[4,3-a]quinazolin-5-yl)-3,4-dihydro-2H-quinolin-5-yl]ethynyl]cyclopropyl]methanol] |  |
| 8.16 | 8.08 | Cc1nnc2nc(N3CCCc4c(C#CC(C)(C)CO)cccc43)c3cc(F)ccc3n12 [Example 235, 4-[1-(7-fluoro-1-methyl-[1,2,4]triazolo[4,3-a]quinazolin-5-yl)-3,4-dihydro-2H-quinolin-5-yl]-2,2-dimethyl-but-3-yn-1-ol] |  |
| 8.44 | 8.60 | Cc1nnc2nc(N3CCCc4c(C#Cc5cnn(C)c5)cccc43)c3cc(F)ccc3n12 [Example 236, 7-fluoro-1-methyl-5-[5-[2-(1-methylpyrazol-4-yl)ethynyl]-3,4-dihydro-2H-quinolin-1-yl]-[1,2,4]triazolo[4,3-a]quinazoline] |  |
| 8.08 | 8.90 | Cc1nnc2nc(N(CC(F)F)c3cc(F)cc(C#CC4CC(F)(F)C4)c3)c3c(F)c(F)ccc3n12 [Example 237, N-[3-[2-(3,3-difluorocyclobutyl)ethynyl]-5-fluoro-phenyl]-N-(2,2-difluoroethyl)-6,7-difluoro-1-methyl-[1,2,4]triazolo[4,3-a]quinazolin-5-amine] |  |
| 8.15 | 7.61 | Cc1nnc2nc(N(CC(F)F)c3cc(F)cc(C#CC4(O)CCC4)c3)c3c(F)c(F)ccc3n12 [Example 238, 1-[2-[3-[2,2-difluoroethyl-(6,7-difluoro-1-methyl-[1,2,4]triazolo[4,3-a]quinazolin-5-yl)amino]-5-fluoro-phenyl]ethynyl]cyclobutanol] |  |
| 7.61 | 7.50 | CCC(O)C#Cc1cc(F)cc(N(CC(F)F)c2nc3nnc(C)n3c3ccc(F)c(F)c23)c1 (stereo not shown) [Example 239, 1-[3-[2,2-difluoroethyl-(6,7-difluoro-1-methyl-[1,2,4]triazolo[4,3-a]quinazolin-5-yl)amino]-5-fluoro-phenyl]pent-1-yn-3-ol] |  |
| 8.15 | 8.47 | Cc1nnc2nc(N3CCCc4c(C#CC(C)(C)C#N)cccc43)c3c(F)c(F)ccc3n12 [Example 240, 4-[1-(6,7-difluoro-1-methyl-[1,2,4]triazolo[4,3-a]quinazolin-5-yl)-3,4-dihydro-2H-quinolin-5-yl]-2,2-dimethyl-but-3-ynenitrile] |  |
| 7.41 | 7.53 | CCC(C)(O)C#Cc1cc(F)cc(N(CC(F)F)c2nc3nnc(C)n3c3ccc(F)c(F)c23)c1 (stereo not shown) [Example 241, 1-[3-[2,2-difluoroethyl-(6,7-difluoro-1-methyl-[1,2,4]triazolo[4,3-a]quinazolin-5-yl)amino]-5-fluoro-phenyl]-3-methyl-pent-1-yn-3-ol] |  |
| 8.43 | 8.71 | CC(C)(C#N)C#Cc1cccc2c1CCCN2c1nc2nncn2c2ccc(F)c(F)c12 [Example 242, 4-[1-(6,7-difluoro-[1,2,4]triazolo[4,3-a]quinazolin-5-yl)-3,4-dihydro-2H-quinolin-5-yl]-2,2-dimethyl-but-3-ynenitrile] |  |
| 8.50 | 8.63 | CC(C)(C#N)C#Cc1cccc2c1CCCN2c1nc2nncn2c2cccc(F)c12 [Example 243, 4-[1-(6-fluoro-[1,2,4]triazolo[4,3-a]quinazolin-5-yl)-3,4-dihydro-2H-quinolin-5-yl]-2,2-dimethyl-but-3-ynenitrile] |  |
| 7.99 | 8.49 | Cc1nnc2nc(N3CCCc4c(C#CC(C)(C)C#N)cccc43)c3cc(F)ccc3n12 [Example 244, 4-[1-(7-fluoro-1-methyl-[1,2,4]triazolo[4,3-a]quinazolin-5-yl)-3,4-dihydro-2H-quinolin-5-yl]-2,2-dimethyl-but-3-ynenitrile] |  |
| 7.67 | 8.17 | Cc1nnc2nc(N(CC(F)F)c3cc(F)cc(C#CC(C)(C)C#N)c3)c3cc(F)ccc3n12 [Example 245, 4-[3-[2,2-difluoroethyl-(7-fluoro-1-methyl-[1,2,4]triazolo[4,3-a]quinazolin-5-yl)amino]-5-fluoro-phenyl]-2,2-dimethyl-but-3-ynenitrile] |  |
| 7.41 | 9.57 | Cc1nnc2nc(N3CCCc4c(C#CC5CCC5)cccc43)c3c(F)cccc3n12 [Example 246, 5-[5-(2-cyclobutylethynyl)-3,4-dihydro-2H-quinolin-1-yl]-6-fluoro-1-methyl-[1,2,4]triazolo[4,3-a]quinazoline] |  |

| Compound | pIC50 [1, 3] | pEC50 [2] | pIC50 [1] |
| --- | --- | --- | --- |
| Cc1nnc2nc(N3CCN(C)Cc4c(C#CC(C)(C)C#N)cccc43)c3c(F)cccc3n12 [compound 163] |  | 7.55 | 7.77 |
